Test results published in EPA's ToxRefDB 2.

Experiments:
dog [1] = details: Subchronic oral toxicity in nonrodent, beagle, Feed, dose end: 13 week, group: systemic, systemic / hematology / erythrocyte (rbc) count differential / erythrocyte (rbc) + systemic / in life observation / body weight / body …
rat [2] = details: Prenatal developmental toxicity study, sprague dawley, Oral, Gavage/Intubation, dose end: 15 GD
rat [3] = details: Subchronic oral toxicity in rodents, other, Feed, dose end: 90 day, group: systemic
rat [4] = details: Prenatal developmental toxicity study, sprague dawley, Oral, Gavage/Intubation, dose end: 15 GD; remark: listed apart in the source
dog [5] = details: Chronic toxicity, beagle, Oral, Feed, dose end: 52 week, group: systemic
rat [6] = details: Combined chronic toxicity/carcinogenicity, sprague dawley, Oral, Feed, dose end: 2 year, group: systemic
rat [7] = details: Subchronic oral toxicity in rodents, sprague dawley, Feed, dose end: 13 week, group: systemic, systemic / clinical chemistry / thyroxine (t4) / thyroxine (t4)
rat [8] = details: Developmental neurotoxicity range-finding study; sprague dawley; Oral; Feed; dose end: 21 PND; group: cannot be grouped; systemic / in life observation / body weight / offspring (pup) weight
mouse [9] = details: Subchronic oral toxicity in rodents, cd1, Feed, dose end: 90 day, group: systemic, systemic / clinical chemistry / aminopyrine-n-demethylase / aminopyrine-n-demethylase + systemic / clinical chemistry / p-nitroanisole …
rat [10] = details: Developmental neurotoxicity study; sprague dawley; Oral; Gavage/Intubation; dose end: 140 PND; group: cannot be grouped; systemic / in life observation / body weight / body weight + developmental / offspring survival late / [other] / [other] + systemic / in …
rat [11] = details: Carcinogenicity, fischer, Oral, Feed, dose end: 101 week, group: systemic
mouse [12] = details: Carcinogenicity, b6c3f1, Oral, Feed, dose end: 101 week, group: systemic
rat [13] = details: Subchronic oral toxicity in rodents, sprague dawley, Feed, dose end: 90 day, group: systemic
rat [14] = details: Multigenerational reproductive toxicity study, sprague dawley, Oral, Feed, dose end: 2 generation
dog [15] = details: Chronic toxicity, beagle, Oral, Gavage/Intubation, dose end: 12 month, group: systemic
mouse [16] = details: Subchronic oral toxicity in rodents, cd1, Feed, dose end: 90 day, group: systemic, systemic / in life observation / body weight / body weight gain + systemic / in life observation / food consumption / food consumption + …
rabbit = details: Prenatal developmental toxicity study, new zealand white, Oral, Gavage/Intubation, dose end: 19 GD
dog [17] = details: Subchronic oral toxicity in nonrodent, beagle, Gavage/Intubation, dose end: 90 day, group: systemic, systemic / in life observation / clinical signs / defecation (diarrhea) + systemic / in life observation / clinical signs / motor activity…
rat [18] = details: Prenatal developmental toxicity study, sprague dawley, Oral, Gavage/Intubation, dose end: 15 GD; remark: listed apart in the source
rat [19] = details: Combined chronic toxicity/carcinogenicity, sprague dawley, Oral, Feed, dose end: 104 week, group: systemic
mouse [20] = details: Carcinogenicity, cd1, Oral, Feed, dose end: 80 week, group: systemic
mouse [21] = details: Carcinogenicity; b6c3f1; Oral; Feed; dose end: 78 week; group: systemic; systemic / pathology microscopic / liver / carcinoma + systemic / in life observation / body weight / body weight + systemic / in life …
rat [22] = details: Carcinogenicity, other, Oral, Feed, dose end: 78 week, group: systemic
dog [23] = details: Subchronic oral toxicity in nonrodent, beagle, Feed, dose end: 90 day, group: systemic, systemic / hematology / erythrocyte (rbc) count differential / erythrocyte (rbc) + systemic / hematology / mean corpuscular (cell) volume (…
[24] = group: developmental, developmental / developmental malformation / bone / incomplete ossification
[25] = group: maternal, systemic / in life observation / body weight / body weight gain + systemic / in life observation / food consumption / food consumption
[26] = group: maternal, systemic / in life observation / body weight / body weight gain + systemic / in life observation / food consumption / food consumption + …
[27] = systemic / pathology microscopic / kidney / pigmentation
[28] = systemic / pathology microscopic / kidney / pigmentation + systemic / clinical chemistry / cholesterol / cholesterol + systemic / clinical …
[29] = group: developmental, developmental / developmental malformation / bone / absent + developmental / developmental malformation / bone / bent + developmental / …
[30] = group: maternal, systemic / in life observation / body weight / body weight + systemic / in life observation / body weight / body weight gain + systemic / in…
[31] = systemic / in life observation / body weight / body weight gain
[32] = systemic / in life observation / body weight / body weight gain + systemic / clinical chemistry / cholesterol / cholesterol + systemic / …
[33] = systemic / clinical chemistry / thyroid stimulating hormone (thyrotropin) (tsh) / thyroid stimulating hormone (=thyrotropin) (tsh) + …
[34] = total + systemic / clinical chemistry / thyroid stimulating hormone (…
[35] = systemic / in life observation / body weight / body weight
[36] = systemic / in life observation / body weight / body weight + systemic / pathology microscopic / liver / neoplastic nodule + systemic / …
[37] = systemic / in life observation / body weight / body weight + systemic / pathology microscopic / blood vessel / hemangiosarcoma + systemic / …
[38] = systemic / in life observation / body weight / body weight + systemic / in life observation / body weight / body weight gain + systemic / in…
[39] = systemic / in life observation / body weight / body weight gain + systemic / organ weight / liver / relative to body weight
[40] = group: offspring, systemic / in life observation / body weight / offspring (pup) weight + systemic / in life observation / body weight / offspring (pup) …
[41] = group: parental, systemic / in life observation / body weight / body weight
[42] = systemic / hematology / blood clotting / blood clotting - thromboplastin time + systemic / in life observation / body weight / body weight …
[43] = group: developmental, developmental / developmental malformation / bone / full supernumerary + developmental / developmental malformation / bone / incomplete …
[44] = group: developmental, systemic / in life observation / body weight / fetal weight + systemic / in life observation / body weight / litter weight
[45] = systemic / pathology microscopic / thyroid gland / adenoma + systemic / clinical chemistry / cholesterol / cholesterol + systemic / clinical…
[46] = systemic / pathology gross / urinary bladder / distended
[47] = systemic / pathology gross / urinary bladder / distended + systemic / hematology / lymphocyte / lymphocyte + systemic / hematology / …
[48] = systemic / pathology microscopic / liver / necrosis
[49] = systemic / pathology microscopic / liver / necrosis + systemic / pathology microscopic / thyroid gland / adenoma + systemic / in life …

## S=C([S-])NCCNC(=S)[S-].S=C([S-])NCCNC(=S)[S-].[Mn+2].[Zn+2] [Mancozeb]
Dog [1]
  LEL: 28.6 mg/kg/day
  LOAEL: 28.6 mg/kg/day
  NEL: 2.98 mg/kg/day
  NOAEL: 2.98 mg/kg/day
Rat [2]; [24]
  LEL: 2 mg/kg/day
  NEL: < 2 mg/kg/day
Rat [2]; group: developmental, developmental / developmental malformation / bone / incomplete ossification + developmental / developmental malformation / brain / [other]
  LOAEL: 8 mg/kg/day
Rat [2]; group: developmental, developmental / developmental malformation / bone / incomplete ossification + developmental / developmental malformation / brain / [other…
  NOAEL: 2 mg/kg/day
Rat [2]; [25]
  LEL: 128 mg/kg/day
  LOAEL: 128 mg/kg/day
Rat [2]; [26]
  NEL: 32 mg/kg/day
  NOAEL: 32 mg/kg/day
Rat [3]; [27]
  LEL: 7.42 mg/kg/day
  LOAEL: 7.42 mg/kg/day
Rat [3]; [28]
  NEL: 3.49 mg/kg/day
  NOAEL: 3.49 mg/kg/day
Rat [4]; [29]
  LEL: 512 mg/kg/day
  LOAEL: 512 mg/kg/day
  NEL: 128 mg/kg/day
  NOAEL: 128 mg/kg/day
Rat [4]; [30]
  LEL: 128 mg/kg/day
  LOAEL: 128 mg/kg/day
  NEL: 32 mg/kg/day
  NOAEL: 32 mg/kg/day
Dog [5]; [31]
  LEL: 7.26 mg/kg/day
  LOAEL: 7.26 mg/kg/day
Dog [5]; [32]
  NEL: 1.75 mg/kg/day
  NOAEL: 1.75 mg/kg/day
Rat [6]; systemic / clinical chemistry / thyroid stimulating hormone (thyrotropin) (tsh) / thyroid stimulating hormone (=thyrotropin) (tsh)
  LEL: 2.33 mg/kg/day
Rat [6]; [33]
  LOAEL: 30.9 mg/kg/day
  NEL: 0.77 mg/kg/day
  NOAEL: 4.38 mg/kg/day
Rat [7]; total
  LEL: 17.8 mg/kg/day
  LOAEL: 17.8 mg/kg/day
Rat [7]; [34]
  NEL: 9.24 mg/kg/day
  NOAEL: 9.24 mg/kg/day
Rat [8]
  LEL: 30 mg/kg/day
  LOAEL: 30 mg/kg/day
  NEL: 5 mg/kg/day
  NOAEL: 5 mg/kg/day
Mouse [9]
  LEL: 167 mg/kg/day
  LOAEL: 167 mg/kg/day
  NEL: 18.1 mg/kg/day
  NOAEL: 18.1 mg/kg/day

## O=C1CCC(N2C(=O)c3ccccc3C2=O)C(=O)N1 (stereo unspecified) [Thalidomide]
Rat [10]
  LEL: 100 mg/kg/day
  LOAEL: > 100 mg/kg/day
  NEL: < 100 mg/kg/day
  NOAEL: ≥ 100 mg/kg/day

## Cc1cc(C)c(N)cc1C [2,4,5-Trimethylaniline]
Rat [11]; [35]
  LOAEL: 10 mg/kg/day
  NOAEL: < 10 mg/kg/day
Rat [11]; [36]
  LEL: 10 mg/kg/day
  NEL: < 10 mg/kg/day
Mouse [12]; [35]
  LOAEL: 7.5 mg/kg/day
  NOAEL: < 7.5 mg/kg/day
Mouse [12]; [37]
  LEL: 7.5 mg/kg/day
  NEL: < 7.5 mg/kg/day

## Cc1cc(C)nc(Nc2ccccc2)n1 [Pyrimethanil]
Rat [13]; [38]
  LOAEL: 529 mg/kg/day
  NOAEL: 54.5 mg/kg/day
Rat [13]; [39]
  LEL: 6.8 mg/kg/day
  NEL: < 6.8 mg/kg/day
Rat [14]; group: offspring, systemic / in life observation / body weight / offspring (pup) weight
  LOAEL: 294 mg/kg/day
Rat [14]; [40]
  LEL: 294 mg/kg/day
  NEL: 23.1 mg/kg/day
  NOAEL: 23.1 mg/kg/day
Rat [14]; [41]
  LEL: 1.9 mg/kg/day
  NEL: < 1.9 mg/kg/day
Rat [14]; group: parental, systemic / in life observation / body weight / body weight + systemic / in life observation / body weight / body weight gain
  LOAEL: 294 mg/kg/day
Rat [14]; group: parental, systemic / in life observation / body weight / body weight + systemic / in life observation / body weight / body weight gain + systemic / in…
  NOAEL: 23.1 mg/kg/day
Dog [15]; systemic / hematology / blood clotting / blood clotting - thromboplastin time + systemic / hematology / neutrophils / neutrophils + systemic…
  NEL: 2 mg/kg/day
Dog [15]; [42]
  LOAEL: 250 mg/kg/day
  NOAEL: 30 mg/kg/day
Dog [15]; systemic / in life observation / clinical signs / vomitting
  LEL: 30 mg/kg/day
Mouse [16]
  LEL: 1860 mg/kg/day
  LOAEL: 1860 mg/kg/day
  NEL: 139 mg/kg/day
  NOAEL: 139 mg/kg/day
rabbit; [43]
  LEL: 300 mg/kg/day
  LOAEL: 300 mg/kg/day
  NEL: 45 mg/kg/day
  NOAEL: 45 mg/kg/day
rabbit; [30]
  LOAEL: 300 mg/kg/day
  NEL: 7 mg/kg/day
  NOAEL: 45 mg/kg/day
rabbit; group: maternal, systemic / in life observation / clinical signs / defecation
  LEL: 45 mg/kg/day
Dog [17]
  LEL: 800 mg/kg/day
  LOAEL: 800 mg/kg/day
  NEL: 80 mg/kg/day
  NOAEL: 80 mg/kg/day
Rat [18]; [44]
  LEL: 1000 mg/kg/day
  LOAEL: 1000 mg/kg/day
  NEL: 85 mg/kg/day
  NOAEL: 85 mg/kg/day
Rat [18]; group: maternal, systemic / in life observation / body weight / body weight + systemic / in life observation / body weight / body weight gain
  LOAEL: 1000 mg/kg/day
Rat [18]; [30]
  LEL: 1000 mg/kg/day
  NEL: 85 mg/kg/day
  NOAEL: 85 mg/kg/day
Rat [19]; systemic / clinical chemistry / gamma glutamyl transferase (ggt) / gamma glutamyl transferase (ggt) + systemic / organ weight / liver / …
  LEL: 17 mg/kg/day
Rat [19]; [45]
  LOAEL: 221 mg/kg/day
  NEL: 1.3 mg/kg/day
  NOAEL: 17 mg/kg/day
Mouse [20]; [46]
  LEL: 2 mg/kg/day
  NEL: < 2 mg/kg/day
Mouse [20]; [47]
  LOAEL: > 211 mg/kg/day
  NOAEL: ≥ 211 mg/kg/day

## ClC(Cl)=C(c1ccc(Cl)cc1)c1ccc(Cl)cc1 [p,p'-DDE]
Mouse [21]
  LEL: 22.2 mg/kg/day
  LOAEL: > 39.1 mg/kg/day
  NEL: < 22.2 mg/kg/day
  NOAEL: ≥ 39.1 mg/kg/day
Rat [22]; [48]
  LOAEL: 12.1 mg/kg/day
  NOAEL: < 12.1 mg/kg/day
Rat [22]; [49]
  LEL: 12.1 mg/kg/day
  NEL: < 12.1 mg/kg/day

## O=C(NC(=O)c1c(F)cccc1F)Nc1cc(Cl)c(OC(F)(F)C(F)C(F)(F)F)c(Cl)c1F (stereo unspecified) [Noviflumuron]
Dog [23]
  LEL: 113 mg/kg/day
  LOAEL: 113 mg/kg/day
  NEL: 1.06 mg/kg/day
  NOAEL: 1.06 mg/kg/day
